Experimental findings from patent publication US12157730B2, “Heteroaryl derivative, method for producing same, and pharmaceutical composition comprising same as effective component” (VORONOI INC., priority 2019, dated 2024) are described below.

In this assay the target is T1, Ba/F3 cell EGFR Exon20 ins NPH (Homo sapiens, UniProt P00533, INS773NPH).
T1 construct: expressed in transfected cells; host or cells: Ba/F3
Description: Ba/F3 cell proliferation suppression, EGFR Exon20 ins NPH. In kind it is cell-based. To be noted: GI50 class; Ba/F3 cell line with NPH inserted at Exon20 of EGFR; 72 hours. The gist of the method:
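Seed 3000–5000 cells/well; after 24 h add compound (12 conc., 0.3 nM–50 um final); incubate 72 h; add CellTiter-Glo, 10 min room temperature; read luminescence; GI50 from % growth vs control, triplicate.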
As for `C=CC(=O)Nc1cc(Nc2cc(N3OCC[C@@H]3c3ccc(F)cc3F)ncn2)c(OC)cc1N1CC[C@@H](N(C)C)C1` [compound 376, N-(5-((6-((R)-3-(2,4-difluorophenyl)isoxazolidine-2-yl)pyrimidine-4-yl)amino)-2-((R)-3-(dimethylamino)pyrolidine-1-yl)-4-methoxyphenyl) acrylamide], the “Ba/F3 (NPH) Activity” value is “A (GI50 < 50 nM)”.

Turning to `C=CC(=O)Nc1cc(Nc2cc(N3OCC[C@@H]3Cc3cccc(F)c3C)ncn2)c(OC)cc1N1CCC(N2C[C@H]3C[C@@H]2CO3)CC1` [compound 1039, N-(2-(4-((1R,4R)-2-oxa-5-azabicyclo [2.2.1]heptane-5-yl)piperidine-1-yl)-5-((6-((S)-3-(3-fluoro-2-methylbenzyl)isoxazolidine-2-yl)pyrimidine-4-yl)amino)-4-methoxyphenyl) acrylamide], the “Ba/F3 (NPH) Activity” value is on record as “A (GI50 < 50 nM)”.

Consider `C=CC(=O)Nc1cc(Nc2cc(N3OCC[C@@H]3c3cccc(F)c3Cl)ncn2)c(OC)cc1N1CCC(N(C)C)CC1` [compound 553, N-(5-((6-((R)-3-(2-chloro-3-fluorophenyl)isoxazolidine-2-yl)pyrimidine-4-yl)amino)-2-(4-(dimethylamino)piperidine-1-yl)-4-methoxyphenyl) acrylamide], for which the “Ba/F3 (NPH) Activity” value was “A (GI50 < 50 nM)”.

In the case of `C=CC(=O)Nc1cc(Nc2cc(N3OCC[C@@H]3c3ccc(F)cc3F)ncn2)c(OC)cc1N1C[C@@H]2C[C@H]1CO2` [compound 324, N-(2-((1S,4S)-2-oxa-5-azabicyclo[2.2.1]heptane-5-yl)-5-((6-((R)-3-(2,4-difluorophenyl)isoxazolidine-2-yl)pyrimidine-4-yl)amino)-4-methoxyphenyl) acrylamide], the “Ba/F3 (NPH) Activity” value is given as “A (GI50 < 50 nM)”.

Regarding `C=CC(=O)Nc1cc(Nc2cc(N3OCC[C@@H]3c3ccccc3)ncn2)c(OC)cc1N1C2CC1CN(C)C2` [Example 35, N-(4-methoxy-2-(3-methyl-3,6-diazabicyclo[3.1.1]heptane-6-yl)-5-((6-((R)-3-phenylisoxazolidine-2-yl)pyrimidine-4-yl)amino)phenyl) acrylamide], the “Ba/F3 (NPH) Activity” value is given as “B (50 nM ≤ GI50 < 500 nM)”.

In the case of `C=CC(=O)Nc1cc(Nc2cc(N3OCC[C@@H]3c3ccc(Cl)c(F)c3)ncn2)c(OC)cc1N1CCN(CC)CC1` [compound 798, N-(5-((6-((R)-3-(4-chloro-3-fluorophenyl)isoxazolidine-2-yl)pyrimidine-4-yl)amino)-2-(4-ethylpiperazine-1-yl)-4-methoxyphenyl) acrylamide], the “Ba/F3 (NPH) Activity” value was “A (GI50 < 50 nM)”.

As for `C=CC(=O)Nc1cc(Nc2cc(N3OCC[C@@H]3c3cccc(C)c3F)ncn2)c(OC)cc1N1CCN(CC)CC1` [compound 847, N-(2-(4-ethylpiperazine-1-yl)-5-((6-((R)-3-(2-fluoro-3-methylphenyl)isoxazolidine-2-yl)pyrimidine-4-yl)amino)-4-methoxyphenyl) acrylamide], the “Ba/F3 (NPH) Activity” value is reported as “A (GI50 < 50 nM)”.

Consider `C=CC(=O)Nc1cc(Nc2cc(N3OCC[C@@H]3c3cccc(Cl)c3Cl)ncn2)c(OC)cc1N1C[C@@H]2C[C@H]1CN2CC` [compound 524, N-(5-((6-((R)-3-(2,3-dichlorophenyl)isoxazolidine-2-yl)pyrimidine-4-yl)amino)-2-((1S,4S)-5-ethyl-2,5-diazabicyclo[2.2.1]heptane-2-yl)-4-methoxyphenyl) acrylamide], for which the “Ba/F3 (NPH) Activity” value is “A (GI50 < 50 nM)”.

As for `C=CC(=O)Nc1cc(Nc2cc(N3OCC[C@@H]3c3cc(F)ccc3F)ncn2)c(OC)cc1-n1ccnc1C` [compound 330, N-(5-((6-((R)-3-(2,5-difluorophenyl)isoxazolidine-2-yl)pyrimidine-4-yl)amino)-4-methoxy-2-(2-methyl-1H-imidazole-1-yl)phenyl)acrylamide], the “Ba/F3 (NPH) Activity” value is reported as “A (GI50 < 50 nM)”.

`C=CC(=O)Nc1cc(Nc2cc(N3OCC[C@@H]3c3cccc(C#N)c3)ncn2)c(OC)cc1N1CCC(N2CCOC[C@H]2C)CC1` [compound 388, N-(5-((6-((R)-3-(3-cyanophenyl)isoxazolidine-2-yl)pyrimidine-4-yl)amino)-4-methoxy-2-(4-((R)-3-methylmorpholino)piperidine-1-yl)phenyl) acrylamide]: the “Ba/F3 (NPH) Activity” value is on record as “A (GI50 < 50 nM)”.

As for `C=CC(=O)Nc1cc(Nc2cc(N3OCC[C@@H]3c3ccc(F)c(F)c3F)ncn2)c(OC)cc1N1CCC(N2CCN(C)CC2)CC1` [compound 620, N-(4-methoxy-2-(4-(4-methylpiperazine-1-yl)piperidine-1-yl)-5-((6-((R)-3-(2,3,4-trifluorophenyl)isoxazolidine-2-yl)pyrimidine-4-yl)amino)phenyl)acrylamide], the “Ba/F3 (NPH) Activity” value is given as “A (GI50 < 50 nM)”.

For the compound `C=CC(=O)Nc1cc(Nc2cc(N3OCC[C@@H]3c3cccc(Cl)c3)ncn2)c(OC)cc1N1CCC(N2CCN(C)CC2)CC1` [compound 416], the “Ba/F3 (NPH) Activity” value is “A (GI50 < 50 nM)”.

As to `C=CC(=O)Nc1cc(Nc2cc(N3OCC[C@@H]3c3cc(F)cc(Cl)c3F)ncn2)c(OC)cc1N1CCC(N2CCN(C3CC3)CC2)CC1` [compound 938, N-(5-((6-((R)-3-(3-chloro-2,5-difluorophenyl)isoxazolidine-2-yl)pyrimidine-4-yl)amino)-2-(4-(4-cyclopropylpiperazine-1-yl)piperidine-1-yl)-4-methoxyphenyl) acrylamide], the “Ba/F3 (NPH) Activity” value was “A (GI50 < 50 nM)”.

Turning to `C=CC(=O)Nc1cc(Nc2cc(N3OCC[C@@H]3Cc3cccc(Cl)c3F)ncn2)c(OC)cc1N1CCC(N2CCN(C3CC3)CC2)CC1` [compound 1020, N-(5-((6-((S)-3-(3-chloro-2-fluorobenzyl)isoxazolidine-2-yl)pyrimidine-4-yl)amino)-2-(4-(4-cyclopropylpiperazine-1-yl)piperidine-1-yl)-4-methoxyphenyl) acrylamide], the “Ba/F3 (NPH) Activity” value was “A (GI50 < 50 nM)”.

For the compound `C=CC(=O)Nc1cc(Nc2cc(N3OCC[C@@H]3c3cccc(F)c3)ncn2)c(OC)cc1N1CCN(C(C)=O)CC1` [compound 831, N-(2-(4-acetylpiperazine-1-yl)-5-((6-((R)-3-(3-fluorophenyl)isoxazolidine-2-yl)pyrimidine-4-yl)amino)-4-methoxyphenyl) acrylamide], the “Ba/F3 (NPH) Activity” value was “A (GI50 < 50 nM)”.

On to `C=CC(=O)Nc1cc(Nc2cc(N3OCC[C@@H]3c3ccc(Cl)cc3)ncn2)c(OC)cc1N1CCC(N2CCN(C3CCC3)CC2)CC1` [Example 75, N-(5-((6-((R)-3-(4-chlorophenyl)isoxazolidine-2-yl)pyrimidine-4-yl)amino)-2-(4-(4-cyclobutylpiperazine-1-yl)piperidine-1-yl)-4-methoxyphenyl) acrylamide], for which the “Ba/F3 (NPH) Activity” value was “A (GI50 < 50 nM)”.

Regarding `C=CC(=O)Nc1cc(Nc2cc(N3OCC[C@@H]3c3cccc(F)c3F)ncn2)c(OC)cc1N1CCC(N2CCN(C)[C@@H](C)C2)CC1` [compound 335, N-(5-((6-((R)-3-(2,3-difluorophenyl)isoxazolidine-2-yl)pyrimidine-4-yl)amino)-2-(4-((S)-3,4-dimethylpiperazine-1-yl)piperidine-1-yl)-4-methoxyphenyl) acrylamide], the “Ba/F3 (NPH) Activity” value is “A (GI50 < 50 nM)”.
